The structures appear in SMILES notation. pKi: −log10 of the molar value. Where a name gives a salt, the structure may show the parent alone. Read-outs that look alike come from different tables or passages of the source.

Here are results for 25 compounds from patent US8481528B2 (Hoffmann-La Roche Inc., priority 2010, dated 2013).

In the experiment the target is T1, human V1a receptor (Homo sapiens, UniProt P37288).
T1 construct: expressed in transfected cells; host or cells: HEK293 cells, transiently transfected; cell membranes
Briefly: human V1a receptor binding (3H-Vasopressin SPA, HEK293 membranes). As to conditions: for Ki: 3H-Vasopressin displacement, membranes of HEK293 cells transiently transfected with human V1a receptor, Ki by Cheng-Prusoff, read-out: pKi (hV1a) (converted). The method, then: The human V1a receptor was cloned by RT-PCR from total human liver RNA. The coding sequence was subcloned in an expression vector after sequencing to confirm the identity of the amplified sequence. […] Cell membranes were prepared from HEK293 cells transiently transfected with the expression vector and grown in 20 liter fermenters with the following protocol.
50 g of cells are resuspended in 30 ml freshly prepared ice cold Lysis buffer (50 mM HEPES, 1 mM EDTA, 10 mM magnesium dichloride adjusted to pH=7.4+complete cocktail of protease inhibitor (Roche Diagnostics)). Homogenized with Polytron for 1 min and sonicated on ice for 2×2 minutes at 80% intensity (Vibracell sonicator). The preparation is centrifuged 20 min at 500 g at 4° C., the pellet is discarded and the supernatant centrifuged 1 hour at 43′000 g at 4° C. (19'000 rpm). The pellet is resuspended in 12.5 ml Lysis buffer+12.5 ml sucrose 20% and homogenized using a Polytron for 1-2 min. The protein concentration is determined by the Bradford method and aliquots are stored at −80° C. until use. For binding studies 60 mg Yttrium silicate SPA beads (Amersham®) are mixed with an aliquot of membrane in binding buffer (50 mM Tris, 120 mM sodium chloride, 5 mM potassium chloride, 2 mM calcium dichloride, 10 mM magnesium dichloride) for 15 minutes with mixing. 50 μl of bead/membrane mixture is then added to each well of a 96 well plate, followed by 50 μl of 4 nM 3H-Vasopressin (American Radiolabeled Chemicals). For total binding measurement 100 μl of binding buffer are added to the respective wells, for non-specific binding 100 μl of 8.4 mM cold vasopressin and for compound testing 100 μl of a serial dilution of each compound in 2% dimethyl sulfoxide. The plate is incubated 1 h at room temperature, centrifuged 1 min at 1000 g and counted on a Packard Top-Count. Non-specific binding counts are subtracted from each well and data is normalized to the maximum specific binding set at 100%. To calculate an IC50 the curve is fitted using a non-linear regression model (XLfit) and the Ki is calculated using the Cheng-Prussoff equation.

T1 sequence (P37288 whole entry): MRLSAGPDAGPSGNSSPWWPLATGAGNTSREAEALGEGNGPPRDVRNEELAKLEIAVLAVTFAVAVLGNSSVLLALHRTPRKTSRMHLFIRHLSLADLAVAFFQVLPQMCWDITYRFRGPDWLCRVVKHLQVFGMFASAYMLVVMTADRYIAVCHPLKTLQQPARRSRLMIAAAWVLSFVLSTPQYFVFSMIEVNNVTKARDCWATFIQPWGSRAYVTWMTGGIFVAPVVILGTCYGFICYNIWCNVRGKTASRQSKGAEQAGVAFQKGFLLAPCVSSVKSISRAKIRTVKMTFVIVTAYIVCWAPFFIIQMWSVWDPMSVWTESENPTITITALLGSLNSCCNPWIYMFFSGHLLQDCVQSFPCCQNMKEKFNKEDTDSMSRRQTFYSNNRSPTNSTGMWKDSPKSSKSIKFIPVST

For `CC(C)(C)OC(=O)N1Cc2cc(Cl)ccc2-n2c(nnc2[C@H]2CC[C@@H](c3noc4ccccc43)CC2)C1` [Example 1, cis-1-(4-Benzo[d]isoxazol-3-yl-cyclohexyl)-8-chloro-4H,6H-2,3,5,10b-tetraaza-benzo[e]azulene-5-carboxylic acid tert-butyl ester], the Ki was 8.91 nM. Consider `CC(C)(C)OC(=O)N1Cc2cc(Cl)ccc2-n2c(nnc2[C@H]2CC[C@H](c3noc4ccccc43)CC2)C1` [Example 2, trans-1-(4-Benzo[d]isoxazol-3-yl-cyclohexyl)-8-chloro-4H,6H-2,3,5,10b-tetraaza-benzo[e]azulene-5-carboxylic acid tert-butyl ester], for which the Ki is 4.79 nM. `Clc1ccc2c(c1)CNCc1nnc([C@H]3CC[C@@H](c4noc5ccccc54)CC3)n1-2` [Example 3, cis-1-(4-Benzo[d]isoxazol-3-yl-cyclohexyl)-8-chloro-5,6-dihydro-4H-2,3,5,10b-tetraaza-benzo[e]azulene hydrochloride]: the Ki is 11.2 nM. Consider `CN1Cc2cc(Cl)ccc2-n2c(nnc2[C@H]2CC[C@@H](c3noc4ccccc43)CC2)C1` [Example 4, cis-1-(4-Benzo[d]isoxazol-3-yl-cyclohexyl)-8-chloro-5-methyl-5,6-dihydro-4H-2,3,5,10b-tetraaza-benzo[e]azulene], for which the pKi (in general, −log10 of the Ki, conventionally taken in molar units) was 8.12.

With `Clc1ccc2c(c1)CNCc1nnc([C@H]3CC[C@H](c4noc5ccccc54)CC3)n1-2` [Example 5, trans-1-(4-Benzo[d]isoxazol-3-yl-cyclohexyl)-8-chloro-5,6-dihydro-4H-2,3,5,10b-tetraaza-benzo[e]azulene hydrochloride], the Ki is 0.891 nM. Compound `CN1Cc2cc(Cl)ccc2-n2c(nnc2[C@H]2CC[C@H](c3noc4ccccc43)CC2)C1` [Example 6, trans-1-(4-Benzo[d]isoxazol-3-yl-cyclohexyl)-8-chloro-5-methyl-5,6-dihydro-4H-2,3,5,10b-tetraaza-benzo[e]azulene] showed a pKi of 9.10. Turning to `CC(C)(C)OC(=O)N1Cc2cc(Cl)ccc2-n2c(nnc2[C@H]2CC[C@H](c3noc4cc(F)ccc43)CC2)C1` [Example 7, trans-8-Chloro-[4-(6-fluoro-benzo[d]isoxazol-3-yl)-cyclohexyl]-4H,6H-2,3,5,10b-tetraaza-benzo[e]azulene-5-carboxylic acid tert-butyl ester], the Ki is 4.79 nM. As to `Fc1ccc2c(c1)onc2[C@H]1CC[C@H](c2nnc3n2-c2ccc(Cl)cc2CNC3)CC1` [Example 8, trans-8-Chloro-1-[4-(6-fluoro-benzo[d]isoxazol-3-yl)-cyclohexyl]-5,6-dihydro-4H-2,3,5,10b-tetraaza-benzo[e]azulene hydrochloride], the Ki is 1.51 nM. Regarding `CN1Cc2cc(Cl)ccc2-n2c(nnc2[C@H]2CC[C@H](c3noc4cc(F)ccc43)CC2)C1` [Example 9, trans-8-Chloro-1-[4-(6-fluoro-benzo[d]isoxazol-3-yl)-cyclohexyl]-5-methyl-5,6-dihydro-4H-2,3,5,10b-tetraaza-benzo[e]azulene], the Ki is 1.2 nM. Turning to `CC(C)(C)OC(=O)N1Cc2cc(Cl)ccc2-n2c(nnc2[C@H]2CC[C@H](c3noc4ccc(F)cc43)CC2)C1` [Example 10, trans-8-Chloro-1-[4-(5-fluoro-benzo[d]isoxazol-3-yl)-cyclohexyl]-4H,6H-2,3,5,10b-tetraaza-benzo[e]azulene-5-carboxylic acid tert-butyl ester], the Ki is 3.24 nM. Same read-out and setting: the value for `Fc1ccc2onc([C@H]3CC[C@H](c4nnc5n4-c4ccc(Cl)cc4CNC5)CC3)c2c1` [Example 11, trans-8-Chloro-1-[4-(5-fluoro-benzo[d]isoxazol-3-yl)-cyclohexyl]-5,6-dihydro-4H-2,3,5,10b-tetraaza-benzo[e]azulene hydrochloride] was 2.09 nM; that for `CN1Cc2cc(Cl)ccc2-n2c(nnc2[C@H]2CC[C@H](c3noc4ccc(F)cc43)CC2)C1` [Example 12, trans-8-Chloro-1-[4-(5-fluoro-benzo[d]isoxazol-3-yl)-cyclohexyl]-5-methyl-5,6-dihydro-4H-2,3,5,10b-tetraaza-benzo[e]azulene] was 0.794 nM; that for `CC(C)(C)OC(=O)N1Cc2cc(Cl)ccc2-n2c(nnc2[C@H]2CC[C@H](c3noc4cccnc43)CC2)C1` [Example 13, trans-8-Chloro-1-(4-isoxazolo[4,5-b]pyridin-3-yl-cyclohexyl)-4H,6H-2,3,5,10b-tetraaza-benzo[e]azulene-5-carboxylic acid tert-butyl ester] was 2.69 nM. Regarding `Clc1ccc2c(c1)CNCc1nnc([C@H]3CC[C@H](c4noc5cccnc54)CC3)n1-2` [Example 14, trans-8-Chloro-1-(4-isoxazolo[4,5-b]pyridin-3-yl-cyclohexyl)-5,6-dihydro-4H-2,3,5,10b-tetraaza-benzo[e]azulene hydrochloride], the Ki is 2.19 nM.

Regarding `CN1Cc2cc(Cl)ccc2-n2c(nnc2[C@H]2CC[C@H](c3noc4cccnc43)CC2)C1` [Example 15, trans-8-Chloro-1-(4-isoxazolo[4,5-b]pyridin-3-yl-cyclohexyl)-5-methyl-5,6-dihydro-4H-2,3,5,10b-tetraaza-benzo[e]azulene], the Ki is 0.708 nM. Consider `CC(C)(C)OC(=O)N1Cc2cc(Cl)ccc2-n2c(nnc2[C@H]2CC[C@H](c3noc4ncccc43)CC2)C1` [Example 16, trans-8-Chloro-1-(4-isoxazolo[5,4-b]pyridin-3-yl-cyclohexyl)-4H,6H-2,3,5,10b-tetraaza-benzo[e]azulene-5-carboxylic acid tert-butyl ester], for which the pKi is 8.44.

With `Clc1ccc2c(c1)CNCc1nnc([C@H]3CC[C@H](c4noc5ncccc54)CC3)n1-2` [Example 17, trans-8-Chloro-1-(4-isoxazolo[5,4-b]pyridin-3-yl-cyclohexyl)-5,6-dihydro-4H-2,3,5,10b-tetraaza-benzo[e]azulene hydrochloride], the Ki is 5.25 nM. Regarding `CN1Cc2cc(Cl)ccc2-n2c(nnc2[C@H]2CC[C@H](c3noc4ncccc43)CC2)C1` [Example 18, trans-8-Chloro-1-(4-isoxazolo[5,4-b]pyridin-3-yl-cyclohexyl)-5-methyl-5,6-dihydro-4H-2,3,5,10b-tetraaza-benzo[e]azulene], the Ki was 0.891 nM. The same measure, in the same setting: the value for `CC(C)(C)OC(=O)N1Cc2cc(Cl)ccc2-n2c(nnc2[C@H]2CC[C@H](c3nsc4ccccc43)CC2)C1` [Example 19, trans-1-(4-Benzo[d]isothiazol-3-yl-cyclohexyl)-8-chloro-4H,6H-2,3,5,10b-tetraaza-benzo[e]azulene-5-carboxylic acid tert-butyl ester] was 7.59 nM.

For the compound `Clc1ccc2c(c1)CNCc1nnc([C@H]3CC[C@H](c4nsc5ccccc54)CC3)n1-2` [Example 20, trans-1-(4-Benzo[d]isothiazol-3-yl-cyclohexyl)-8-chloro-5,6-dihydro-4H-2,3,5,10b-tetraaza-benzo[e]azulene hydrochloride], the pKi is 8.82.

For `CN1Cc2cc(Cl)ccc2-n2c(nnc2[C@H]2CC[C@H](c3nsc4ccccc43)CC2)C1` [Example 21, trans-1-(4-Benzo[d]isothiazol-3-yl-cyclohexyl)-8-chloro-5-methyl-5,6-dihydro-4H-2,3,5,10b-tetraaza-benzo[e]azulene], the Ki was 1.58 nM. In turn, `Clc1ccc2c(c1)CN(C1CCC1)Cc1nnc([C@H]3CC[C@H](c4nsc5ccccc54)CC3)n1-2` [Example 22, trans-1-(4-Benzo[d]isothiazol-3-yl-cyclohexyl)-8-chloro-5-cyclobutyl-5,6-dihydro-4H-2,3,5,10b-tetraaza-benzo[e]azulene] gave a negative logarithm of the Ki (pKi) of 9.52. Regarding `CNCCN1Cc2cc(Cl)ccc2-n2c(nnc2[C@H]2CC[C@H](c3nsc4ccccc43)CC2)C1` [Example 23, trans-{2-[1-(4-Benzo[d]isothiazol-3-yl-cyclohexyl)-8-chloro-4H,6H-2,3,5,10b-tetraaza-benzo[e]azulen-5-yl]-ethyl}-methyl-amine], the Ki is 0.603 nM. In turn, `CC(=O)N1Cc2cc(Cl)ccc2-n2c(nnc2[C@H]2CC[C@H](c3nsc4ccccc43)CC2)C1` [Example 24, trans-1-[1-(4-Benzo[d]isothiazol-3-yl-cyclohexyl)-8-chloro-4H,6H-2,3,5,10b-tetraaza-benzo[e]azulen-5-yl]-ethanone] showed a pKi of 9.40. For the compound `CN(C)CC(=O)N1Cc2cc(Cl)ccc2-n2c(nnc2[C@H]2CC[C@H](c3nsc4ccccc43)CC2)C1` [Example 25, trans-1-[1-(4-Benzo[d]isothiazol-3-yl-cyclohexyl)-8-chloro-4H,6H-2,3,5,10b-tetraaza-benzo[e]azulen-5-yl]-2-dimethylamino-ethanone], the Ki is 0.302 nM.
